Here are results for four compounds from patent US10357501B2, “Treating conditions associated with increased eotaxin with 25-hydroxyvitamin D3” (DSM IP ASSETS B.V., priority 2010, dated 2019).

For series [1] the following is noted: ingestion of 250 μg/day as a dietary supplement; cited from earlier work.
The conditions of series [2]: in vivo; cited from earlier work.
Series [3] is described as follows: Clinical trial: 25(OH)D levels after oral supplementation. To be noted: female, human, in vivo. As to the method: The objective was studying and comparing the pharmacokinetic characteristics of vitamin D3 and 25-hydroxyvitamin D3 administered to humans. Equimolar quantities of both substances were investigated. The regimen was based on 20 μg/day (or its equivalent on a weekly basis) of 25-hydroxyvitamin D3. For comparative purposes, it was necessary to administer equimolar quantities of either vitamin D3 or 25-hydroxyvitamin D3. In respect to administration of vitamin D3, the dose was considered to be sufficient to overcome background variability and provide and efficacious dose to the participants. […]
Plasma concentrations of 25-hydroxyvitamin D3 (e.g., peak and steady state) were determined by obtaining samples from the subjects at various times after the dosage was ingested. For screening purposes and to establish baseline values, a blood sample was obtained prior to enrollment into the study and the clinical laboratory measured vitamin D3, 25-hydroxyvitamin D3, calcium, creatinine, albumin, and fasting glucose in the serum. […]
Twenty healthy postmenopausal women with 25-Hydroxyvitamin D3 levels below 25 ng/ml and a mean age of 61.5 years (SD ±7.2) were enrolled in this study. […] On 14 visits over 4 months, 25(OH)D levels, and 7 inflammation markers (eotaxin, IL-8, IL-12, IP-10, MCP-1, MP-1β, RANTES) were measured. […]

The conditions of series [4]: considered; no test described; cited from earlier work.

For the compound Vitamin D, in series [1], the “blood concentration of 25-hydroxyvitamin D” value is “about 200 nmol/L”.
On to 25-hydroxyvitamin D, for which the “blood concentration at which hypercalcemia may occur” value in series [2] was “greater than 375 nmol/L”.
For the compound `C=C1CC[C@H](O)C/C1=C/C=C1\CCC[C@]2(C)[C@@H]([C@H](C)CCCC(C)C)CC[C@@H]12` [Vitamin D3, cholecalciferol], the “Mean 25(OH)D levels” value in series [3] stood at 13.5 ng/mL.
On to `C=C1CC[C@H](O)C/C1=C/C=C1\CCC[C@]2(C)[C@@H]([C@H](C)CCCC(C)(C)O)CC[C@@H]12` [25-Hydroxyvitamin D3, 25-hydroxyvitamin D3], for which the “activity relative to Vitamin D3” value in series [4] is “approximately 3 ×”.
